Source: PubChem BioAssay (NCI)
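Results reflect a 48-hour exposure of cells in 96-well plates to compound at five concentrations. At the GI50, growth is halved. TGI is the concentration that stops growth completely.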

How the values were obtained:
Experiment in all cases: DTP human tumour cell line panel, 48 h
786-0 renal = system: 786-0 renal
A498 renal = system: A498 renal
A549 NSCLC = system: A549 NSCLC
ACHN renal = system: ACHN renal
BT-549 breast = system: BT-549 breast
CAKI-1 renal = system: CAKI-1 renal
CCRF-CEM leukemia = system: CCRF-CEM leukemia
COLO 205 colon = system: COLO 205 colon
DU-145 prostate = system: DU-145 prostate
EKVX NSCLC = system: EKVX NSCLC
HCC-2998 colon = system: HCC-2998 colon
HCT-116 colon = system: HCT-116 colon
HCT-15 colon = system: HCT-15 colon
HL-60(TB) leukemia = system: HL-60(TB) leukemia
HOP-62 NSCLC = system: HOP-62 NSCLC
HOP-92 NSCLC = system: HOP-92 NSCLC
HS 578T breast = system: HS 578T breast
HT29 colon = system: HT29 colon
IGROV1 ovarian = system: IGROV1 ovarian
K-562 leukemia = system: K-562 leukemia
KM12 colon = system: KM12 colon
LOX IMVI melanoma = system: LOX IMVI melanoma
M14 melanoma = system: M14 melanoma
MALME-3M melanoma = system: MALME-3M melanoma
MCF7 breast = system: MCF7 breast
MDA-MB-231 breast = system: MDA-MB-231 breast
MDA-MB-435 = system: MDA-MB-435
MOLT-4 leukemia = system: MOLT-4 leukemia
NCI-H226 lung = system: NCI-H226 lung
NCI-H23 lung = system: NCI-H23 lung
NCI-H460 lung = system: NCI-H460 lung
NCI-H522 lung = system: NCI-H522 lung
NCI/ADR-RES ovarian = system: NCI/ADR-RES ovarian
OVCAR-3 ovarian = system: OVCAR-3 ovarian
OVCAR-4 ovarian = system: OVCAR-4 ovarian
OVCAR-5 ovarian = system: OVCAR-5 ovarian
OVCAR-8 ovarian = system: OVCAR-8 ovarian
PC-3 prostate = system: PC-3 prostate
RPMI-8226 leukemia = system: RPMI-8226 leukemia
RXF 393 renal = system: RXF 393 renal
SF-268 CNS = system: SF-268 CNS
SF-295 CNS = system: SF-295 CNS
SF-539 CNS = system: SF-539 CNS
SK-MEL-2 melanoma = system: SK-MEL-2 melanoma
SK-MEL-28 melanoma = system: SK-MEL-28 melanoma
SK-MEL-5 melanoma = system: SK-MEL-5 melanoma
SK-OV-3 ovarian = system: SK-OV-3 ovarian
SN12C renal = system: SN12C renal
SNB-19 CNS = system: SNB-19 CNS
SNB-75 CNS = system: SNB-75 CNS
SR leukemia = system: SR leukemia
SW-620 colon = system: SW-620 colon
T-47D breast = system: T-47D breast
TK-10 renal = system: TK-10 renal
U251 CNS = system: U251 CNS
UACC-257 melanoma = system: UACC-257 melanoma
UACC-62 melanoma = system: UACC-62 melanoma
UO-31 renal = system: UO-31 renal

Compound: COC1=C(C)C(=O)c2c(c(CCCl)c3n2CCC3OC(C)=O)C1=O (stereo unspecified)
- GI50 (786-0 renal): 287 nM
- TGI (786-0 renal): 1240 nM
- GI50 (A498 renal): 63.2 nM
- TGI (A498 renal): 166 nM
- GI50 (A549 NSCLC): 165 nM
- TGI (A549 NSCLC): 913 nM
- GI50 (ACHN renal): 142 nM
- TGI (ACHN renal): 417 nM
- GI50 (BT-549 breast): 149 nM
- TGI (BT-549 breast): 652 nM
- GI50 (CAKI-1 renal): 350 nM
- TGI (CAKI-1 renal): 2150 nM
- GI50 (CCRF-CEM leukemia): 3330 nM
- TGI (CCRF-CEM leukemia): > 95800 nM
- GI50 (COLO 205 colon): 136 nM
- TGI (COLO 205 colon): 399 nM
- GI50 (DU-145 prostate): 24.8 nM
- TGI (DU-145 prostate): 1690 nM
- GI50 (EKVX NSCLC): 2090 nM
- TGI (EKVX NSCLC): 7300 nM
- GI50 (HCC-2998 colon): 204 nM
- TGI (HCC-2998 colon): 582 nM
- GI50 (HCT-116 colon): 791 nM
- TGI (HCT-116 colon): > 22800 nM
- GI50 (HCT-15 colon): 155 nM
- TGI (HCT-15 colon): 2350 nM
- GI50 (HL-60(TB) leukemia): 2430 nM
- TGI (HL-60(TB) leukemia): 33600 nM
- GI50 (HOP-62 NSCLC): 122 nM
- TGI (HOP-62 NSCLC): 793 nM
- GI50 (HOP-92 NSCLC): 4480 nM
- TGI (HOP-92 NSCLC): 24000 nM
- GI50 (HS 578T breast): 417 nM
- TGI (HS 578T breast): 3620 nM
- GI50 (HT29 colon): 152 nM
- TGI (HT29 colon): 1890 nM
- GI50 (IGROV1 ovarian): 1650 nM
- TGI (IGROV1 ovarian): 10100 nM
- GI50 (K-562 leukemia): 1650 nM
- TGI (K-562 leukemia): > 33100 nM
- GI50 (KM12 colon): 642 nM
- TGI (KM12 colon): 3050 nM
- GI50 (LOX IMVI melanoma): 204 nM
- TGI (LOX IMVI melanoma): 927 nM
- GI50 (M14 melanoma): 171 nM
- TGI (M14 melanoma): 592 nM
- GI50 (MALME-3M melanoma): 188 nM
- TGI (MALME-3M melanoma): 414 nM
- GI50 (MCF7 breast): 71 nM
- TGI (MCF7 breast): 1850 nM
- GI50 (MDA-MB-231 breast): 17500 nM
- TGI (MDA-MB-231 breast): 61700 nM
- GI50 (MDA-MB-435): 523 nM
- TGI (MDA-MB-435): 1970 nM
- GI50 (MOLT-4 leukemia): 4110 nM
- TGI (MOLT-4 leukemia): > 100000 nM
- GI50 (NCI-H226 lung): 246 nM
- TGI (NCI-H226 lung): 1030 nM
- GI50 (NCI-H23 lung): 58.6 nM
- TGI (NCI-H23 lung): 992 nM
- GI50 (NCI-H460 lung): 38.9 nM
- TGI (NCI-H460 lung): 1290 nM
- GI50 (NCI-H522 lung): 192 nM
- TGI (NCI-H522 lung): 850 nM
- GI50 (NCI/ADR-RES ovarian): 447 nM
- TGI (NCI/ADR-RES ovarian): 8470 nM
- GI50 (OVCAR-3 ovarian): 1480 nM
- TGI (OVCAR-3 ovarian): 5430 nM
- GI50 (OVCAR-4 ovarian): 7180 nM
- TGI (OVCAR-4 ovarian): 38600 nM
- GI50 (OVCAR-5 ovarian): 325 nM
- TGI (OVCAR-5 ovarian): 9320 nM
- GI50 (OVCAR-8 ovarian): 897 nM
- TGI (OVCAR-8 ovarian): 19400 nM
- GI50 (PC-3 prostate): 749 nM
- TGI (PC-3 prostate): 14300 nM
- GI50 (RPMI-8226 leukemia): 2840 nM
- TGI (RPMI-8226 leukemia): 27300 nM
- GI50 (RXF 393 renal): 167 nM
- TGI (RXF 393 renal): 390 nM
- GI50 (SF-268 CNS): 310 nM
- TGI (SF-268 CNS): 17600 nM
- GI50 (SF-295 CNS): 153 nM
- TGI (SF-295 CNS): 864 nM
- GI50 (SF-539 CNS): 157 nM
- TGI (SF-539 CNS): 545 nM
- GI50 (SK-MEL-2 melanoma): 319 nM
- TGI (SK-MEL-2 melanoma): 1000 nM
- GI50 (SK-MEL-28 melanoma): 310 nM
- TGI (SK-MEL-28 melanoma): 1090 nM
- GI50 (SK-MEL-5 melanoma): 84.9 nM
- TGI (SK-MEL-5 melanoma): 228 nM
- GI50 (SK-OV-3 ovarian): 279 nM
- TGI (SK-OV-3 ovarian): 983 nM
- GI50 (SN12C renal): 391 nM
- TGI (SN12C renal): 15400 nM
- GI50 (SNB-19 CNS): 272 nM
- TGI (SNB-19 CNS): 18200 nM
- GI50 (SNB-75 CNS): 141 nM
- TGI (SNB-75 CNS): 376 nM
- GI50 (SR leukemia): 155 nM
- TGI (SR leukemia): > 32500 nM
- GI50 (SW-620 colon): 453 nM
- TGI (SW-620 colon): 12300 nM
- GI50 (T-47D breast): 8220 nM
- TGI (T-47D breast): > 94600 nM
- GI50 (TK-10 renal): 260 nM
- TGI (TK-10 renal): 626 nM
- GI50 (U251 CNS): 273 nM
- TGI (U251 CNS): 13400 nM
- GI50 (UACC-257 melanoma): 227 nM
- TGI (UACC-257 melanoma): 733 nM
- GI50 (UACC-62 melanoma): 208 nM
- TGI (UACC-62 melanoma): 578 nM
- GI50 (UO-31 renal): 241 nM
- TGI (UO-31 renal): 739 nM
